# Experimental data: publication PMC12700550, “DLL4^+ neutrophils promote Notch1-mediated endothelial PANoptosis to exacerbate acute lung injury in sepsis” (The Journal of Clinical Investigation, 2025)
# Where “and” joins values, the source holds several entries; their conditions need not be identical. Identical values can stand only once.
# B1: eCIRP: extracellular cold-inducible RNA-binding protein; recombinant murine, produced in our laboratory (protein, UniProt P60824 1-172, looked up)
# Cold-inducible RNA-binding …: MASDEGKLFVGGLSFDTNEQALEQVFSKYGQISEVVVVKDRETQRSRGFGFVTFENIDDAKDAMMAMNGKSVDGRQIRVDQAGKSSDNRSRGYRGGSAGGRGFFRGGRSRGRGFSRGGGDRGYGGGRFESRSGGYGGSRDYYASRSQGGSYGYRSSGGSYRDSYDSYATHNE
# Tests used:
# ZBP1 = ZBP1 mRNA in lungs of CLP mice, RT-PCR; format: in vivo, mouse; details: 20 h; for lung ZBP1 mRNA (Figure 5A): 10 mg/kg NDI retro-orbital, vs sham, individual mice, 10 mg/kg
# Protocol: (§1) Sepsis was induced in mice by cecal ligation and puncture (CLP) as described previously ([45], [46]). Mice were anesthetized with isoflurane to a surgical plane and placed in a supine position. CLP was performed through a midline laparotomy. The abdomen was shaved and disinfected. Through a 2 cm midline incision, the cecum was exposed and then ligated with a 4-0 silk suture 1 cm proximal from the distal cecal extremity. For 20-hour CLP experiments, the cecum was punctured twice with a 22-gauge needle. A small amount of cecal content was extruded through both holes, and the ligated cecum was returned to the peritoneal cavity. The wound was closed in layers. For 10-day sepsis survival studies, the cecum was punctured once with a 22-gauge needle. A small amount of cecal content was extruded. Mice were allocated to the vehicle and adoptive transfer of DLL4^+ neutrophils or DLL4^– neutrophils groups. Adoptive transfer mice received a retro-orbital injection of 1 × 10^6 cells per mouse DLL4^+ neutrophils or DLL4^– neutrophils in […] phosphate-buffered saline (PBS) immediately after abdominal closure in both the 20-hour experiments and the survival study. Vehicle groups received an equivalent volume of PBS, while treatment groups received NDI 10 mg/kg in […] PBS via retro-orbital injection after CLP. This dose was chosen primarily on the basis of our laboratory’s prior experience, we have consistently used this dose in mouse CLP models with reproducible efficacy and without observable toxicity ([39], [44]). Sham-operated animals underwent a laparotomy without CLP. After closure, the mice received a subcutaneous injection of 0.5 mL of normal saline to overcome surgery-induced dehydration. For 20-hour experiments, animals were not injected with antibiotics; however, for survival studies, animals were given 0.5 mg per kg body weight imipenem (lot 4D21K05, WG Critical Care LLC) subcutaneously in 0.5 mL saline once at the end of CLP. All mice were subcutaneously injected with a single dose of 0.1 mg/kg buprenorphine after CLP. […]
# C57BL/6 mice, CLP sepsis [1] = assay: Serum aspartate aminotransferase (AST), CLP mice; format: in vivo, mouse; parameters: serum AST (Figure 6B): unit not given here; details: 20 h; for serum AST (Figure 6B): 10 mg/kg NDI, individual mice
# Protocol: (§2) Sepsis was induced in mice by cecal ligation and puncture (CLP) as described previously ([45], [46]). Mice were anesthetized with isoflurane to a surgical plane and placed in a supine position. CLP was performed through a midline laparotomy. The abdomen was shaved and disinfected. Through a 2 cm midline incision, the cecum was exposed and then ligated with a 4-0 silk suture 1 cm proximal from the distal cecal extremity. […] A small amount of cecal content was extruded through both holes, and the ligated cecum was returned to the peritoneal cavity. The wound was closed in layers. […] A small amount of cecal content was extruded. […] Vehicle groups received an equivalent volume of PBS, while treatment groups received NDI 10 mg/kg in […] PBS via retro-orbital injection after CLP. This dose was chosen primarily on the basis of our laboratory’s prior experience, we have consistently used this dose in mouse CLP models with reproducible efficacy and without observable toxicity ([39], [44]). Sham-operated animals underwent a laparotomy without CLP. After closure, the mice received a subcutaneous injection of 0.5 mL of normal saline to overcome surgery-induced dehydration. […] All mice were subcutaneously injected with a single dose of 0.1 mg/kg buprenorphine after CLP. Serum levels of alanine aminotransferase, aspartate aminotransferase, and lactate dehydrogenase were determined using specific colorimetric enzymatic assays (Pointe Scientific Inc.) according to the manufacturer’s instructions.
# TNF-α = assay: Lung TNF-α mRNA, CLP mice; format: in vivo, mouse; details: 20 h; for lung TNF-α mRNA (Figure 6F): 10 mg/kg NDI, vs sham, individual mice
# Protocol: as §1
# C57BL/6 mice, CLP sepsis [2] = assay: Lung water content, CLP mice; format: in vivo, mouse; details: 20 h; for lung water content (wet weight – dry weight)/wet weight (Figure 6K): 10 mg/kg NDI, individual mice
# Protocol: as §2, with “Lung vascular leakage was quantified using the Evans blue dye–labeled (EBD-labeled) albumin extravasation assay ([48]). […] Sigma-Aldrich) via retro-orbital injection. At 1 hour after EBD administration (4.5 hours after the end” for “Serum levels”, “resuscitation), the lungs were perfused with heparinized (1 U/mL) normal saline via right ventricle injection to remove intravascular dye. The whole lung was dehydrated for 48 hours at 60°C, immersed in formamide (1 mL/g wet weight; Sigma-Aldrich) at 37°C for 48 hours,” for “alanine aminotransferase, aspartate aminotransferase,”, “centrifuged at 5,000g for 30 minutes. The amount of extracted EBD in” for “lactate dehydrogenase were determined using specific colorimetric enzymatic assays (Pointe Scientific Inc.) according to”, “supernatant was quantified by spectrophotometry. The concentration of extravasated EBD-albumin in lung homogenates was expressed as nanograms EBD per milligram of dry lung tissue. Lung water content was calculated as (wet weight – dry weight)/wet weight %.” for “manufacturer’s instructions.”
# DLL4 = DLL4 mRNA in eCIRP-treated BMDNs, qPCR; format: cell-based, mouse; details: for DLL4 mRNA: DLL4-CIRP
# Protocol: mRNA was extracted from lung tissues with TRIzol reagent (Invitrogen, Thermo Fisher Scientific). An equal amount ([…]) of mRNA was reverse-transcribed into cDNA using the reverse transcriptase enzyme (Invitrogen, Thermo Fisher Scientific). qPCR was performed from the diluted cDNA templates with forward and reverse primers (Supplemental Table 4) and SYBR Green PCR Master Mix (Applied Biosystems, Thermo Fisher Scientific) using an Applied Biosystems 7300 real-time PCR machine. Mouse β-actin served as an internal control gene for normalization. Relative expression of mRNA was represented as fold change in comparison with the sham group.
# BMDNs (1 × 10^6) were treated with eCIRP (1 μg/mL) for 12 hours, and DLL1, DLL3, and DLL4 were analyzed by qPCR.
# [3] = DLL4^+ neutrophil-injected CLP mice, 10 mg/kg
molecule,measurement,setting,value
ECAGSPCHNGGTCEDGI [NDI],lung ZBP1 mRNA (Figure 5A),ZBP1; DLL4^+ neutrophils i.v. + CLP,2.489 fold change and 2.951 fold change and 0.6537 fold change and 1.296 fold change and 1.101 fold change and 2.543 fold change and 1.904 fold change and 2.345 fold change and 0.6068 fold change and 1.613 fold change and 2.244 fold change and 2.348 fold change and 0.6906 fold change
same,effect on lung ZBP1 mRNA,"ZBP1; DLL4^+ neutrophils/sepsis, 10 mg/kg NDI",effectively decreased ZBP1 expression
same,lung ZBP1 mRNA (Figure 5A),ZBP1; DLL4^– neutrophils + CLP,3.779 fold change and 3.701 fold change and 3.374 fold change and 2.776 fold change and 2.9508 fold change and 2.383 fold change and 4.109 fold change and 2.422 fold change
same,effect on serum AST,"C57BL/6 mice, CLP sepsis [1]; [3]",significantly reduced the serum levels of hepatic and cell injury markers and proinflammatory cytokines
same,serum AST (Figure 6B),"C57BL/6 mice, CLP sepsis [1]; DLL4^+ neutrophils + CLP",63.648 and 54.808 and 59.67 and 72.046 and 53.04 and 50.83 and 58.786 and 52.156 and 37.57 and 64.974 and 46.852 and 66.3 and 46.41 and 34.918 and 42.432 and 51.272
same,serum AST (Figure 6B),"C57BL/6 mice, CLP sepsis [1]; DLL4^– neutrophils + CLP",66.3 and 67.184 and 102.102 and 72.046 and 55.25 and 53.482 and 43.758 and 50.83
same,effect on lung TNF-α mRNA,TNF-α; [3],"significantly decreased the mRNA expression of TNF-α, IL-6, and KC in lung tissues"
same,lung TNF-α mRNA (Figure 6F),TNF-α; DLL4^+ neutrophils + CLP,4.255 fold change and 2.291 fold change and 5.674 fold change and 4.568 fold change and 3.143 fold change and 2.408 fold change and 0.5968 fold change and 4.125 fold change and 0.8652 fold change and 4.064 fold change and 0.4766 fold change and 9.1932 fold change and 5.227 fold change and 8.424 fold change
same,lung TNF-α mRNA (Figure 6F),TNF-α; DLL4^– neutrophils + CLP,8.678 fold change and 9.157 fold change and 5.574 fold change and 9.371 fold change and 6.524 fold change and 4.342 fold change and 3.267 fold change and 5.109 fold change and 7.731 fold change
same,effect on lung water content,"C57BL/6 mice, CLP sepsis [2]; [3]","significantly attenuated these effects, reducing both lung water content and Evans blue dye content"
same,lung water content (wet weight – dry weight)/wet weight (Figure 6K),"C57BL/6 mice, CLP sepsis [2]; DLL4^+ neutrophils + CLP",71.922% and 71.5282% and 71.1472% and 70.6857% and 70.3749% and 72.6514% and 72.546% and 71.2677% and 69.0684% and 72.1189% and 71.6599% and 71.2762%
same,lung water content (wet weight – dry weight)/wet weight (Figure 6K),"C57BL/6 mice, CLP sepsis [2]; DLL4^– neutrophils + CLP",69.6732% and 70.471% and 69.6655% and 68.9338% and 68.9855% and 70.575% and 70.9924% and 68.7155% and 69.153%
B1,effect on DLL4 expression,"DLL4; BMDNs, eCIRP 1 μg/mL, 12 h",selectively upregulated DLL4
same,DLL4 mRNA,DLL4; replicate 1,2.784
same,DLL4 mRNA,DLL4; replicate 2,1.987
same,DLL4 mRNA,DLL4; replicate 3,1.949
same,DLL4 mRNA,DLL4; replicate 4,2.578
same,DLL4 mRNA,DLL4; replicate 5,2.145
same,DLL4 mRNA,DLL4; replicate 6,5.912
same,DLL4 mRNA,DLL4; replicate 7,4.801
same,DLL4 mRNA,DLL4; replicate 8,3.122
